Assays:
C. glabrata ATCC 90030 = test: Antifungal broth dilution assay against C. glabrata (modified CLSI); assay type: cell-based, Candida glabrata; details: for C. glabrata IC50 / IC50: in vitro; for IC50: converted with molecular weight; for X more potent than Amphotericin B: molar IC50 ratio versus amphotericin B
Method in brief: (§1)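 Growth read by optical density at 530 nm, duplicate wells, 1% final DMSO. Staphylococcus spp.: Mueller-Hinton pH 7.3, 5.0×10^5 CFU/ml, 35 °C for 16-20 h; Candida spp.: RPMI/dextrose/glutamine/MOPS pH 6.0, 1.5×10^3 CFU/ml, 35 °C for 46-50 h. Reported values are 50% inhibition versus controls, no-growth MIC, and killing MFC/MBC.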

[1] = system: Cryptococcus neoformans ATCC 90113; test: Antimicrobial microdilution assay against Cryptococcus neoformans (modified CLSI/NCCLS, optical density); assay type: cell-based; details: for X more potent than Amphotericin B: C. neoformans, ratio of molar IC50 to Amphotericin B; for C. neoformans IC50 / IC50: in vitro, C. neoformans ATCC 90113; for IC50: read-out: C. neoformans IC50 (mol/L)
Method in brief: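 Fungicidal endpoint taken by subculturing 5 μL from each clear well onto agar, MFC being the lowest concentration with no regrowth. Duplicate wells of serially diluted compound (20% DMSO/saline) in RPMI pH 6.0, read at 630 nm pre- and post-incubation, under modified CLSI methods. IC50 means 50% growth inhibition against controls.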

[2] = system: S. mansoni newly transformed schistosomula (NTS); test: In vitro testing on Schistosoma mansoni newly transformed schistosomula (NTS), viability score; assay type: cell-based; details: NTS S. mansoni, 33 μM, 72 h
Procedure: Assays were prepared according to the laboratory SOP for the lab of Dr. Jennifer Keiser (Swiss Tropical and Public Health Institute, Basel). Harvested S. mansoni cercariae (Liberian strain) obtained from infected Biomphalaria glabrata snails were mechanically transformed into newly transformed schistosomula (NTS) following standard procedures. Briefly, snails were placed under light in the morning to stimulate cercarial shedding. The cercarial suspension was collected, cooled for 30 minutes, and then vigorously pipetted (30×) and vortexed (3 minutes). The suspension was then placed in the incubator (37° C. and 5% CO2) for 30 minutes, and the vortexing and pipetting steps were repeated. The transformation was complete at this point, and the tails were separated from the heads by rinsing three times with cold HBSS. NTS were then incubated overnight in culture medium overnight and used the next day.
The original stock compounds (which were not already dissolved) were dissolved in dimethyl sulfoxide (DMSO) to a concentration of 10 mM. 100 NTS were placed in each well of a 96-well plate with culture medium, and the test compound for a final well volume of 250 μl. […] NTS incubated with no more than 1% DMSO served as control. NTS were kept in an incubator at 37° C. and 5% CO2 for up to 72 hours. After 72 hours, the condition of the NTS was microscopically evaluated using a scale from 3 (normal activity and no tegument alteration) to 0 (dead, completely granulated).

[3] = system: L. donovani promastigotes; test: Antileishmanial Alamar Blue assay on promastigotes; assay type: cell-based, Leishmania donovani; details: for X more potent than Pentamidine: L. donovani, ratio of molar IC50 to Pentamidine; for L. donovani IC50 / IC50: promastigotes, 48 hours, Alamar Blue; for IC50: read-out: L. donavani IC50
Method in brief: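 Alamar Blue fluorescence (544/590 nm) quantified growth after 48 hours at 26° C of compound-treated promastigotes. Parasites were seeded at 5×10^5/mL in RPMI 1640 plus 10% FCS; drug range 50-3.1 μg/mL, and IC50 derived by plotting percent growth against test concentration.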

[4] = system: Staphylococcus aureus ATCC 29213; test: Antibacterial broth dilution assay against S. aureus (modified CLSI); assay type: cell-based
Method in brief: as §1

CC(=O)[O-].CC(=O)[O-].CC(=O)[O-].F[P-](F)(F)(F)(F)F.F[P-](F)(F)(F)(F)F.F[P-](F)(F)(F)(F)F.O.[Ni+2].[Ni+2].[Ni+2].c1c(CN2CCNCCN3CCN(CC3)CC2)cc(CN2CCNCCN3CCN(CC3)CC2)cc1CN1CCNCCN2CCN(CC2)CC1 [CDG030, [Ni3(tris-SB-Cyclens)0Ac)3][PF6]3•H2O]
C. glabrata IC50 (C. glabrata ATCC 90030): 4.170 µg/mL
IC50 (C. glabrata ATCC 90030): 2750 nM
X more potent than Amphotericin B (C. glabrata ATCC 90030): 0.52
X more potent than Amphotericin B [1]: 0.45
C. neoformans IC50 [1]: ≤ 0.800 µg/mL
IC50 [1]: 528 nM
Effect at 72 h (%) [2]: 18.02%

CC(=O)[O-].F[P-](F)(F)(F)(F)F.[Ni+2].c1ccc(CN2CCN3CCN(CC2)CCN(Cc2ccccc2)CC3)cc1 [TC10, [Ni(Bn2Bcyclen)(OAc)]PF6]
X more potent than Pentamidine [3]: 0.31
L. donovani IC50 [3]: 10.95 µg/mL
IC50 [3]: 17100 nM
Effect at 72 h (%) [2]: 30.63%

CC(=O)[O-].F[P-](F)(F)(F)(F)F.[Co+2].c1ccc(CN2CCCN3CCN(CCCN(Cc4ccccc4)CC3)CC2)cc1 [TC11, [Co(Bn2Bcyclam)(OAc)]PF6]
X more potent than Pentamidine [3]: 0.10
L. donovani IC50 [3]: 35.29 µg/mL
IC50 [3]: 52700 nM
Effect at 72 h (%) [2]: 24.32%

CC(=O)[O-].CC(=O)[O-].CC(=O)[O-].F[P-](F)(F)(F)(F)F.F[P-](F)(F)(F)(F)F.F[P-](F)(F)(F)(F)F.F[P-](F)(F)(F)(F)F.[NH4+].[Zn+2].[Zn+2].[Zn+2].c1c(CN2CCCN3CCN(CCCNCC2)CC3)cc(CN2CCCN3CCN(CCCNCC2)CC3)cc1CN1CCCN2CCN(CCCNCC1)CC2 [CDG026, [Zn3(tris-SB-Cyclams)(OAc)3][PF6]3•NH4PF6]
C. glabrata IC50 (C. glabrata ATCC 90030): 3.420 µg/mL
IC50 (C. glabrata ATCC 90030): 1940 nM
X more potent than Amphotericin B (C. glabrata ATCC 90030): 0.73
X more potent than Amphotericin B [1]: 0.04
C. neoformans IC50 [1]: 10.030 µg/mL
IC50 [1]: 5680 nM
Effect at 72 h (%) [2]: 11.71%

CC(=O)[O-].F[P-](F)(F)(F)(F)F.[Zn+2].c1ccc(CN2CCN3CCN(CC2)CCN(Cc2ccccc2)CC3)cc1 [RM42, [Zn(Bn2Bcyclen)(OAc)]PF6]
X more potent than Pentamidine [3]: 0.73
L. donovani IC50 [3]: 4.73 µg/mL
Effect at 72 h (%) [2]: 30.63%

Cl.Cl.Cl.Cl.Cl.Cl.Cl.Cl.O.O.O.O.c1cc(CN2CCCN3CCN(CCCNCC2)CC3)cc(CN2CCCN3CCN(CCCNCC2)CC3)c1 [KS226, m-SB-cyclams HCl salt]
X more potent than Pentamidine [3]: 0.28
L. donovani IC50 [3]: 17.61 µg/mL
IC50 [3]: 19200 nM
X more potent than Amphotericin B [1]: 3.13
C. neoformans IC50 [1]: 0.070 µg/mL
IC50 [1]: 76.2 nM
Effect at 72 h (%) [2]: 5.41%

CC(=O)[O-].CC(=O)[O-].CN1CCCN2CCN(CCCN(Cc3ccc(CN4CCCN5CCN(C)CCCN(CC5)CC4)cc3)CC2)CC1.F[P-](F)(F)(F)(F)F.F[P-](F)(F)(F)(F)F.[Ni+2].[Ni+2] [KS33, [Ni2(p-CB-cyclams)(OAc)2](PF6)2]
S. aureus IC50 ([4]; in vitro): 8.490 µg/mL
IC50 ([4]; in vitro, converted with molecular weight): 7660 nM
X more potent than ciprofloxacen ([4]; molar IC50 ratio versus ciprofloxacen): 0.04
X more potent than Amphotericin B [1]: 0.26
C. neoformans IC50 [1]: 1.020 µg/mL
IC50 [1]: 920 nM
Effect at 72 h (%) [2]: 0.00%

CC(=O)[O-].CC(=O)[O-].CN1CCCN2CCN(CCCN(Cc3cccc(CN4CCCN5CCN(C)CCCN(CC5)CC4)c3)CC2)CC1.F[P-](F)(F)(F)(F)F.F[P-](F)(F)(F)(F)F.[Cu+2].[Cu+2] [RM52, [Cu2(m-CB-Cyclams)(OAc)2][PF6]2]
C. glabrata IC50 (C. glabrata ATCC 90030): 4.940 µg/mL
IC50 (C. glabrata ATCC 90030): 4420 nM
X more potent than Amphotericin B (C. glabrata ATCC 90030): 0.32
X more potent than Amphotericin B [1]: 0.32
C. neoformans IC50 [1]: 0.820 µg/mL
IC50 [1]: 733 nM
Effect at 72 h (%) [2]: 5.41%

CC(=O)[O-].CC(=O)[O-].CC(=O)[O-].F[P-](F)(F)(F)(F)F.F[P-](F)(F)(F)(F)F.F[P-](F)(F)(F)(F)F.[Co+2].[Co+2].[Co+2].c1c(CN2CCCN3CCN(CCCNCC2)CC3)cc(CN2CCCN3CCN(CCCNCC2)CC3)cc1CN1CCCN2CCN(CCCNCC1)CC2 [CDG025, [Co3(tris-SB-Cyclams)(OAc)3][PF6]3]
C. glabrata IC50 (C. glabrata ATCC 90030): 1.500 µg/mL
IC50 (C. glabrata ATCC 90030): 948 nM
X more potent than Amphotericin B (C. glabrata ATCC 90030): 1.50
X more potent than Amphotericin B [1]: 0.21
C. neoformans IC50 [1]: 1.800 µg/mL
IC50 [1]: 1140 nM
Effect at 72 h (%) [2]: 18.02%

m-CB-cyclens HCl salt [DJC05C]
X more potent than Pentamidine [3]: 0.21
L. donovani IC50 [3]: 22.89 µg/mL
IC50 [3]: 25700 nM
X more potent than Amphotericin B [1]: 0.23
C. neoformans IC50 [1]: 0.940 µg/mL
IC50 [1]: 1060 nM
Effect at 72 h (%) [2]: 5.41%

CC(=O)[O-].CC(=O)[O-].CN(C)C=O.F[P-](F)(F)(F)(F)F.F[P-](F)(F)(F)(F)F.[Co+2].[Co+2].c1cc(CN2CCNCCN3CCN(CC3)CC2)ccc1CN1CCNCCN2CCN(CC2)CC1 [OB30, [Co2(p-SB-Cyclens)(OAc)2][PF6]2•DMF]
C. glabrata IC50 (C. glabrata ATCC 90030): 0.800 µg/mL
IC50 (C. glabrata ATCC 90030): 729 nM
X more potent than Amphotericin B (C. glabrata ATCC 90030): 1.95
X more potent than Amphotericin B [1]: 0.33
C. neoformans IC50 [1]: ≤ 0.800 µg/mL
IC50 [1]: 729 nM
Effect at 72 h (%) [2]: 5.41%

[Cu3(tris-SB-Cyclams)(OAc)3][PF6]3•1.5NH4PF6 [CDG027]
C. glabrata IC50 (C. glabrata ATCC 90030): 1.630 µg/mL
IC50 (C. glabrata ATCC 90030): 886 nM
X more potent than Amphotericin B (C. glabrata ATCC 90030): 1.60
X more potent than Amphotericin B [1]: 0.34
C. neoformans IC50 [1]: 1.280 µg/mL
IC50 [1]: 696 nM
Effect at 72 h (%) [2]: 11.71%

CN1CCCN2CCN(CCCN(Cc3cc(CN4CCCN5CCN(C)CCCN(CC5)CC4)cc(CN4CCCN5CCN(C)CCCN(CC5)CC4)c3)CC2)CC1 [BNS018, tris-CB-cyclams]
X more potent than Pentamidine [3]: 0.57
L. donovani IC50 [3]: 7.73 µg/mL
IC50 [3]: 9250 nM
X more potent than Amphotericin B [1]: 2.21
C. neoformans IC50 [1]: 0.090 µg/mL
IC50 [1]: 108 nM
Effect at 72 h (%) [2]: 11.71%

CC(=O)[O-].CC(=O)[O-].CC(=O)[O-].CN1CCN2CCN(CC1)CCN(Cc1cc(CN3CCN4CCN(C)CCN(CC4)CC3)cc(CN3CCN4CCN(C)CCN(CC4)CC3)c1)CC2.F[P-](F)(F)(F)(F)F.F[P-](F)(F)(F)(F)F.F[P-](F)(F)(F)(F)F.[Cu+2].[Cu+2].[Cu+2] [BNS21, [Cu3(tris-CB-Cyclens)(OAc)3][PF6]3]
X more potent than Amphotericin B [1]: 0.28
C. neoformans IC50 [1]: 1.320 µg/mL
IC50 [1]: 850 nM
Effect at 72 h (%) [2]: 5.41%

[Ni(Bn1Me1Bcyclam)(OAc)]PF6•0.5NH4PF6 [TRH11B]
X more potent than Pentamidine [3]: 0.09
L. donovani IC50 [3]: 38.64 µg/mL
IC50 [3]: 59700 nM
Effect at 72 h (%) [2]: 24.32%

CC(=O)[O-].CC(=O)[O-].F[P-](F)(F)(F)(F)F.F[P-](F)(F)(F)(F)F.O.[Ni+2].[Ni+2].c1cc(CN2CCNCCN3CCN(CC3)CC2)ccc1CN1CCNCCN2CCN(CC2)CC1 [OB29, [Ni2(p-SB-Cyclens)(OAc)2][PF6]2•H2O]
X more potent than Amphotericin B [1]: 0.31
C. neoformans IC50 [1]: ≤ 0.800 µg/mL
IC50 [1]: 768 nM
Effect at 72 h (%) [2]: 5.41%

[Cu2(m-SB-Cyclams)(OAc)2][PF6]2 [KS24]
X more potent than Amphotericin B [1]: 0.08
C. neoformans IC50 [1]: 3.180 µg/mL
IC50 [1]: 3080 nM
Effect at 72 h (%) [2]: 18.02%

CC(=O)[O-].CC(=O)[O-].F[P-](F)(F)(F)(F)F.F[P-](F)(F)(F)(F)F.[Cu+2].[Cu+2].c1cc(CN2CCNCCN3CCN(CC3)CC2)ccc1CN1CCNCCN2CCN(CC2)CC1 [OB28, [Cu2(p-SB-Cyclens)(OAc)2][PF6]2]
X more potent than Amphotericin B [1]: 0.05
C. neoformans IC50 [1]: 5.210 µg/mL
IC50 [1]: 5040 nM
Effect at 72 h (%) [2]: 0.00%

CC(=O)[O-].CC(=O)[O-].CC(=O)[O-].CN1CCN2CCN(CC1)CCN(Cc1cc(CN3CCN4CCN(C)CCN(CC4)CC3)cc(CN3CCN4CCN(C)CCN(CC4)CC3)c1)CC2.F[P-](F)(F)(F)(F)F.F[P-](F)(F)(F)(F)F.F[P-](F)(F)(F)(F)F.O.O.O.O.O.O.[Ni+2].[Ni+2].[Ni+2] [BNS19]
C. glabrata IC50 (C. glabrata ATCC 90030): 4.900 µg/mL
IC50 (C. glabrata ATCC 90030): 2970 nM
X more potent than Amphotericin B (C. glabrata ATCC 90030): 0.48
Effect at 72 h (%) [2]: 18.02%

[Ni2(m-SB-Cyclams)(OAc)2][PF6]2 [KS25]
X more potent than Amphotericin B [1]: 0.02
C. neoformans IC50 [1]: 16.030 µg/mL
IC50 [1]: 15700 nM
Effect at 72 h (%) [2]: 18.02%

Reference: patent US12139481B2, “Compositions comprising macrocycle derivatives incorporating bridged macrocycles and methods of producing and using same” (Southwestern Oklahoma State University, priority 2015, dated 2024)
